The text below walks through data of patent US10190120B2, “Zn-DPA complex compounds and siRNA delivery systems containing the same” (KOREA INSTITUTE OF SCIENCE AND TECHNOLOGY, priority 2016, dated 2019).

For experiment [1], the system named is HepG2 cell line. In words: siRNA delivery efficiency with biotin pre-treatment (competition). The note with it: biotin 0.5 mM and 5 mM 30 minutes before, molar ratio 1:400, FIG. 6. The class given is cell-based. As for the experimental part: (§1) According to Experimental Example 1 (1), composites having a molar ratio of siRNA (luciferase siRNA, siLuc) and the Zn-DPA complex compound of 1:50, 1:100, 1:200, 1:400, 1:600, 1:800, and 1:1,000 were prepared, and the concentration of siLuc per sample was adjusted constantly at 20 nM. The composite was treated with ssPEI/CMV-LUC (1 μg) in HeLa, HepG2, and HCT116 cell lines, and was washed with a Dulbecco's phosphate buffered saline solution (DPBS) after 6 hours, and then the composite was treated in a serum-free medium. After 4 hours, the medium was exchanged with a 10% serum medium, and then the samples were cultivated at 37° C. for 24 hours. The cells were washed with the DPBS and were dissolved in a lysis buffer (200 μL), and then the degree of expression of the luciferase was determined by using a microplate fluorescence analyzer (VICTOR 3 V Multilabel Counter, PerkinElmer, Wellesley, Mass.). The results are illustrated in FIG. 5.
(§2) In order to evaluate the delivery efficiency of siRNA (luciferase siRNA, siLuc) for the Zn-DPA complex compound synthesized in Example 1-3, a cell experiment was performed in the same manner as in Experimental Example 4 by classifying the experimental groups into groups treated with biotin at a concentration of 0.5 mM and 5 mM 30 minutes before treating the groups with a composite of siRNA and the Zn-DPA complex compound, or a non-treatment group. […]

In experiment [2] the test system is HCT116 cell line. Described as above. The class given is cell-based. The note with it: biotin 0.5 mM and 5 mM 30 minutes before, molar ratio 1:400, FIG. 6. As for the experimental part: as §1, §2

Take `O=C(CCCCC1SC[C@H]2NC(=O)N[C@@H]12)NCCCCOc1cccc(CN(Cc2ccccn2)Cc2ccccn2)c1` (some centres unmarked) [Example 1-3]: the “effect of biotin on cell delivery efficiency / amount of luciferase expressed” value in experiment [1] is reported as “significantly varied depending on the presence or absence of biotin”; in experiment [2], “slight”.
